For orientation: MIC means the lowest concentration found to suppress growth.

A value given as a limit tells only on which side of the number the result lay.

We go through nine compounds from US12503452B2 (Curza Global, LLC, priority 2019, dated 2025).

The target in experiment [1] is Rabbit Reticulocyte Lysate (eukaryotic protein synthesis). Put plainly: Rabbit reticulocyte lysate luciferase assay (inhibition of eukaryotic protein synthesis). It counts as biochemical. The following applies: class by IC50 or % inhibition @ 1 μM, read-out: Rabbit reticulocyte IC50 (μM/% inhib.). Summed up:
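Compounds were tested in 8-point 2-fold dilution series for blocking luciferase synthesis in nuclease-treated rabbit reticulocyte lysate (30° C., 90 minutes). Luminescence read-out, corrected by no-RNA background, was expressed as % inhibition against water-only reactions.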

Experiment [2] relates to E. coli S30 extract (bacterial protein synthesis). Put plainly: E. coli S30 extract coupled transcription-translation luciferase assay (inhibition of bacterial protein synthesis). It is filed as biochemical. As to conditions: class by IC50 or % inhibition @ 1 μM, read-out: S30 IC50 (μM/% inhib.). Summed up: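 Luminescent read-out of luciferase made from pBESTluc DNA by E. coli S30 extract after 1 h at 37 °C with compound in an 8-point 2-fold series. Background came from no-DNA reactions. Percent inhibition was calculated against water-only controls.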

The test system of another experiment is E. coli (Ec). As to the kind of experiment: Broth microdilution minimum inhibitory concentration (MIC). The following applies: E. coli, growth medium with sodium bicarbonate; for MIC: Escherichia coli, read-out: E. coli + bicarb MIC. It is filed as cell-based. Summed up: (§1)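 Inoculum of 5×10^4 CFU/well, prepared from colonies grown to 0.5 McFarland (A600) at 35±2 °C, is exposed to two-fold serial dilutions in CAMHB-based media (± bicarbonate or human serum). Modified CLSI microdilution, triplicate.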

The next experiment concerns S. aureus (Sa). The description is as above. It counts as cell-based. As to conditions: S. aureus, growth medium with sodium bicarbonate; for MIC: Staphylococcus aureus, read-out: Sa + bicarb MIC. In outline:
as §1

A further experiment has as its system P. aeruginosa (Pa). The description is as above. It is filed as cell-based. The following applies: P. aeruginosa, growth medium with sodium bicarbonate; for MIC: Pseudomonas aeruginosa, read-out: Pa MIC + bicarb. In outline: as §1
The next experiment relates to A. baumannii (Ab). The description is as above. It counts as cell-based. The following applies: A. baumannii, growth medium with sodium bicarbonate; for MIC: Acinetobacter baumannii, read-out: Ab + bicarb MIC. Summed up: as §1
In another experiment the test system is E. faecalis (Ef). Described as above. It counts as cell-based. As to conditions: E. faecalis, growth medium with sodium bicarbonate; for MIC: Enterococcus faecalis, read-out: Ef + bicarb MIC. In outline: as §1

Consider `CCN(Cc1ccc(-n2ccc(NC(=O)N3CCN(C(=O)C(C)(C)N)[C@H](C)C3)nc2=O)cc1)C1CCC(N)CC1` (stereo partly drawn) [Compound 274], for which the IC50 was over 1 µM in experiment [1] and under 0.5 µM in experiment [2]. Further, the minimal inhibitory concentration (MIC) in the experiment with E. coli (Ec) is under 8 µg/mL; in the experiment on S. aureus (Sa) it was under 8 µg/mL; in the experiment on P. aeruginosa (Pa), 8 to 32 µg/mL; in the experiment with A. baumannii (Ab), under 8 µg/mL; in the experiment with E. faecalis (Ef) it was under 8 µg/mL.

As for `CCN(Cc1ccc(-n2ccc(NC(=O)N3CCN(C(=O)C(C)(C)N)C[C@H]3C)nc2=O)cc1)C1CCC(N)CC1` (stereo partly drawn) [Compound 275], the figures for the IC50 in experiment [1] and in experiment [2] were over 1 µM and under 0.5 µM, respectively. In addition, the MIC with E. coli (Ec) was under 8 µg/mL; with S. aureus (Sa) it was under 8 µg/mL; with P. aeruginosa (Pa), 8 to 32 µg/mL; with A. baumannii (Ab), under 8 µg/mL; in the experiment on E. faecalis (Ef), under 8 µg/mL.

Turning to `CCN(Cc1ccc(-n2ccc(NC(=O)N3CCN(C(=O)C(C)(C)N)CC3)nc2=O)cc1C(F)(F)F)C1CCC(N)CC1` (stereo not drawn) [Compound 276], the results for the IC50 in experiment [1] and in experiment [2] were over 1 µM and 0.5 to 1 µM, respectively. The minimal inhibitory concentration (MIC) in the experiment on E. coli (Ec) was under 8 µg/mL; in the experiment with S. aureus (Sa), under 8 µg/mL; in the experiment on P. aeruginosa (Pa) it was over 32 µg/mL; with A. baumannii (Ab) it was over 32 µg/mL; in the experiment on E. faecalis (Ef) it was under 8 µg/mL.

In the case of `C[C@](N)(CO)C(=O)N1CCN(C(=O)Nc2ccn(-c3ccc(CN(CC4CC4)C4CCC(N)CC4)cc3)c(=O)n2)CC1` (stereo partly drawn) [Compound 277], the IC50 is over 1 µM in experiment [1] and under 0.5 µM in experiment [2]. Further, the MIC in the experiment with E. coli (Ec) is under 8 µg/mL; with S. aureus (Sa), under 8 µg/mL; in the experiment with P. aeruginosa (Pa), over 32 µg/mL; in the experiment with A. baumannii (Ab), over 32 µg/mL; in the experiment on E. faecalis (Ef) it was under 8 µg/mL.

On to `CN(Cc1ccc(-n2ccc(NC(=O)N3CCN(C(=O)C(C)(C)N)CC3)nc2=O)cc1F)C1CCC(N)CC1` (stereo not drawn) [Compound 278], for which the IC50 in experiment [1] is over 1 µM; in experiment [2], under 0.5 µM. Moreover, the MIC is under 8 µg/mL in the experiment with E. coli (Ec); under 8 µg/mL in the experiment on S. aureus (Sa); 8 to 32 µg/mL in the experiment with P. aeruginosa (Pa); 8 to 32 µg/mL in the experiment with A. baumannii (Ab); under 8 µg/mL in the experiment on E. faecalis (Ef).

As to `CC(Cc1ccc(-n2ccc(NC(=O)N3CCN(C(=O)C(C)(C)N)CC3)nc2=O)cc1)N(C)C[C@H]1CCC[C@H](N)C1` (stereo partly drawn) [Compound 279], the IC50 in experiment [1] and in experiment [2] was over 1 µM each time. Besides, the minimal inhibitory concentration (MIC) in the experiment on E. coli (Ec) is under 8 µg/mL; with S. aureus (Sa) it was under 8 µg/mL; in the experiment on P. aeruginosa (Pa), over 32 µg/mL; in the experiment with A. baumannii (Ab) it was over 32 µg/mL; in the experiment on E. faecalis (Ef), 8 to 32 µg/mL.

As for `CCN(C[C@H]1CCC[C@H](N)C1)C(C)Cc1ccc(-n2ccc(NC(=O)N3CCN(C(=O)C(C)(C)N)CC3)nc2=O)cc1` (stereo partly drawn) [Compound 280], the results for the IC50 in experiment [1] and in experiment [2] were over 1 µM and 0.5 to 1 µM, respectively. Also, the MIC in the experiment with E. coli (Ec) is under 8 µg/mL; in the experiment on S. aureus (Sa), under 8 µg/mL; with P. aeruginosa (Pa), over 32 µg/mL; in the experiment on A. baumannii (Ab), over 32 µg/mL; in the experiment with E. faecalis (Ef) it was under 8 µg/mL.

As for `CCN(C(C)Cc1ccc(-n2ccc(NC(=O)N3CCN(C(=O)C(C)(C)N)CC3)nc2=O)cc1)C1CCC(N)CC1` (stereo not drawn) [Compound 281], the IC50 is over 1 µM in experiment [1] and under 0.5 µM in experiment [2]. The MIC in the experiment on E. coli (Ec) was under 8 µg/mL; in the experiment with S. aureus (Sa) it was under 8 µg/mL; in the experiment with A. baumannii (Ab) it was over 32 µg/mL. The “Pa MIC + bicarb” value in the experiment with P. aeruginosa (Pa) is “++ (An MIC value (μg/mL) that is 8 μg/mL or greater and less than 32 μg/mL)”. The “Ef + bicarb MIC” value in the experiment with E. faecalis (Ef) is given as “+++ (An MIC value (μg/mL) that is less than 8 μg/mL)”.

With `CCN(C(C)Cc1ccc(-n2ccc(NC(=O)N3CCN(C(=O)C(C)(C)N)CC3)nc2=O)cc1)C1CCC(N)CC1` (stereo not drawn) [Compound 282], the IC50 in experiment [1] and in experiment [2] was over 1 µM in each case. Also, the “E. coli + bicarb MIC” value in the experiment on E. coli (Ec) is “+++ (An MIC value (μg/mL) that is less than 8 μg/mL)”. Further, the “Sa + bicarb MIC” value with S. aureus (Sa) is “+++ (An MIC value (μg/mL) that is less than 8 μg/mL)”. Moreover, in the experiment on P. aeruginosa (Pa), the “Pa MIC + bicarb” value was “+ (An MIC value (μg/mL) that is 32 μg/mL or greater)”. Also, the “Ab + bicarb MIC” value with A. baumannii (Ab) is listed as “+ (An MIC value (μg/mL) that is 32 μg/mL or greater)”. In addition, in the experiment with E. faecalis (Ef), the “Ef + bicarb MIC” value is listed as “+ (An MIC value (μg/mL) that is 32 μg/mL or greater)”.
